Among the data in paper PMC10824666 (Nature Cancer, 2023) are remaining activity values, retold here.

Structures are written as SMILES. Read-outs that look alike come from different tables or passages of the source.

Test in all cases: biochemical
What all share (parameters): Eurofins DiscoverX kinase panel, competitive binding assay at 1 uM, percent of DMSO control
What all share (conditions): competitive binding, percent of DMSO control

For one experiment, the target named is CDK8 (Homo sapiens, UniProt P49336). A digest of the protocol: (§1)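 Single-point profiling at 1 µM compound in a competition-binding format against 96 kinases, read out as POC relative to control; n = 1.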
Sequence of CDK8 (P49336 whole entry): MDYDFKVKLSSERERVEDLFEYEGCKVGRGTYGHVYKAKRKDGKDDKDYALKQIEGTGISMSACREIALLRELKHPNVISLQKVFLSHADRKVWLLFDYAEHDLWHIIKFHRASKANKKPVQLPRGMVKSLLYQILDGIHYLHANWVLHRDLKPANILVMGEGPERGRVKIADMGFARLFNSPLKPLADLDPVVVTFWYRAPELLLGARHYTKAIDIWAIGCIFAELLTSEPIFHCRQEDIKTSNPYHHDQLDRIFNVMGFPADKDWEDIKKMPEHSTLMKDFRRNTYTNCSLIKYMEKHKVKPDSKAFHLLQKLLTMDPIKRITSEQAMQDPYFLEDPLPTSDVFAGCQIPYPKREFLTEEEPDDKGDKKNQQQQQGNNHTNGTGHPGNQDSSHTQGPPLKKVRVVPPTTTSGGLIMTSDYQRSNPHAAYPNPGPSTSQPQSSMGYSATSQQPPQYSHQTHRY
Another experiment addresses T1, Abl_phos (Homo sapiens, UniProt P00519).
T1 construct: gene ABL1; phosphorylated
A digest of the protocol: as §1

The target of the next experiment is MAP4K4 (Homo sapiens, UniProt O95819). A digest of the protocol: as §1
Sequence of MAP4K4 (O95819 whole entry): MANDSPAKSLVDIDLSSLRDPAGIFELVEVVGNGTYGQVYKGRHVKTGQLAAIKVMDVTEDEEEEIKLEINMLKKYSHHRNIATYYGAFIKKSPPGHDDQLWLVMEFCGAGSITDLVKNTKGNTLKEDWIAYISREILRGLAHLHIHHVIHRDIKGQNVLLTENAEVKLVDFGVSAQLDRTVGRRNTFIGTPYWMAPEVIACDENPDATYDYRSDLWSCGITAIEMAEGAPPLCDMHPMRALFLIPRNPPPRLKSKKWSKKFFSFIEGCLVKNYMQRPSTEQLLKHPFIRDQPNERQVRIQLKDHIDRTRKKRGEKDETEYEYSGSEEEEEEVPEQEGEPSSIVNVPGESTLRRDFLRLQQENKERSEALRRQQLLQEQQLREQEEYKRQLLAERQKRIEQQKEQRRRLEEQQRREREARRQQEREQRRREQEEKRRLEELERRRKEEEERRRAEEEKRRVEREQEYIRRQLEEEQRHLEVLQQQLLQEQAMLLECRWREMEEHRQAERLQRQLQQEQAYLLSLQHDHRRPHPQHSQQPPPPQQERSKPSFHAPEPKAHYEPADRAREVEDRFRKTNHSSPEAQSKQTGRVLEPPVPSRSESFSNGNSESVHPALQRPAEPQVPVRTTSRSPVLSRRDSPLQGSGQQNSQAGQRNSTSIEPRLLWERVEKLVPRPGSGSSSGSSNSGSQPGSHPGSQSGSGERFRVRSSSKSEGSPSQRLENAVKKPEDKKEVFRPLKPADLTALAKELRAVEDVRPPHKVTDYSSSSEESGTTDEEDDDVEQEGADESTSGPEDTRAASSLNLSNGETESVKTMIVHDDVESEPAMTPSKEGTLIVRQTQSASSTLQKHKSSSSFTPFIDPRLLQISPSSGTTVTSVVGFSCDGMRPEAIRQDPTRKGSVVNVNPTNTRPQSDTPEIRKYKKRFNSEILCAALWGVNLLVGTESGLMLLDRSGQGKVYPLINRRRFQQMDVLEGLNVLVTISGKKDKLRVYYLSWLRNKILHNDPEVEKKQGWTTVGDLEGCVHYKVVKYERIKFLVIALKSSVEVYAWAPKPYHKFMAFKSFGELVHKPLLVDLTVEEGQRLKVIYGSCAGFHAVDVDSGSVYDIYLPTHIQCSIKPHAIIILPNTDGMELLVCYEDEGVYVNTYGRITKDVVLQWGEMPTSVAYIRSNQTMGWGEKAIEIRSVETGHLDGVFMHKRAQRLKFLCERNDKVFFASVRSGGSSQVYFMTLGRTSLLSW
The target in another experiment is T2, GAK (Homo sapiens, UniProt O14976).
T2 sequence (O14976 1-1311): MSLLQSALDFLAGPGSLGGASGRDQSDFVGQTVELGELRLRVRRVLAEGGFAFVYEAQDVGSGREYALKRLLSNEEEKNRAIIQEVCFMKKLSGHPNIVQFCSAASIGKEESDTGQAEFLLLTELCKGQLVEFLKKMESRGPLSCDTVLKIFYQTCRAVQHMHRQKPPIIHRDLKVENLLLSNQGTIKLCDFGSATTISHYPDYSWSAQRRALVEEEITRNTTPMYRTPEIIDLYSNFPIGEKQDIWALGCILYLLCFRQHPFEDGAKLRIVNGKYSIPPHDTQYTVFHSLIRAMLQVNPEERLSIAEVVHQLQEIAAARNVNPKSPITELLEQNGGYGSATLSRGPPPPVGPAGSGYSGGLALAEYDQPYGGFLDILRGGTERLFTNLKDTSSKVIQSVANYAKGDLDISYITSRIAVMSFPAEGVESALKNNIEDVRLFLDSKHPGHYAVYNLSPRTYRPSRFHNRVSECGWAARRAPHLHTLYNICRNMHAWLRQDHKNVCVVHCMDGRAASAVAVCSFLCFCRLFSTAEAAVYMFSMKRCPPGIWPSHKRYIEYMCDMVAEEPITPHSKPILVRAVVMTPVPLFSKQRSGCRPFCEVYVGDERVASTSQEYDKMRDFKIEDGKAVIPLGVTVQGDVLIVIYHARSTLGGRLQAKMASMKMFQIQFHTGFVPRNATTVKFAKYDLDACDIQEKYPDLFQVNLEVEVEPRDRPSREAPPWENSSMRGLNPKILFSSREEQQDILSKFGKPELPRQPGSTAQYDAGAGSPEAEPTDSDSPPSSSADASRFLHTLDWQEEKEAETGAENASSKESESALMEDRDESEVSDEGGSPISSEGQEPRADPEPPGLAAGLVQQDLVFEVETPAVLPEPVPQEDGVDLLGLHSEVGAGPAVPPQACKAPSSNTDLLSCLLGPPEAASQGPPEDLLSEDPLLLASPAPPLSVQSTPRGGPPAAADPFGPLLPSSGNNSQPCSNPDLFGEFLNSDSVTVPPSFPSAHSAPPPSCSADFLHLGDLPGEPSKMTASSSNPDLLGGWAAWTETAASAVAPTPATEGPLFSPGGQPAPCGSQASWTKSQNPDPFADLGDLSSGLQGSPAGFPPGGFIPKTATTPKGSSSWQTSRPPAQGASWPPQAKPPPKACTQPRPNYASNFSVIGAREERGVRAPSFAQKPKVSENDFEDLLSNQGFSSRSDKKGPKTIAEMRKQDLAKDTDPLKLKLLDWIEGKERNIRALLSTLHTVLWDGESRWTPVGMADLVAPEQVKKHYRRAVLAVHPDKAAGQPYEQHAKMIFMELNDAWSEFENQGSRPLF
A digest of the protocol: as §1

[1] abbreviates: read-out: Kinome Profiling performed by Eurofins DiscoverX / AM-0277, 1.0 µM / POC.
[2] abbreviates: read-out: Kinome Profiling performed by Eurofins DiscoverX / AM-1882, 1.0 µM / POC.
The mark [3] stands for this setting: read-out: Kinome Profiling performed by Eurofins DiscoverX / AM-5308, 1.0 µM / POC.

T1 sequence (P00519 whole entry): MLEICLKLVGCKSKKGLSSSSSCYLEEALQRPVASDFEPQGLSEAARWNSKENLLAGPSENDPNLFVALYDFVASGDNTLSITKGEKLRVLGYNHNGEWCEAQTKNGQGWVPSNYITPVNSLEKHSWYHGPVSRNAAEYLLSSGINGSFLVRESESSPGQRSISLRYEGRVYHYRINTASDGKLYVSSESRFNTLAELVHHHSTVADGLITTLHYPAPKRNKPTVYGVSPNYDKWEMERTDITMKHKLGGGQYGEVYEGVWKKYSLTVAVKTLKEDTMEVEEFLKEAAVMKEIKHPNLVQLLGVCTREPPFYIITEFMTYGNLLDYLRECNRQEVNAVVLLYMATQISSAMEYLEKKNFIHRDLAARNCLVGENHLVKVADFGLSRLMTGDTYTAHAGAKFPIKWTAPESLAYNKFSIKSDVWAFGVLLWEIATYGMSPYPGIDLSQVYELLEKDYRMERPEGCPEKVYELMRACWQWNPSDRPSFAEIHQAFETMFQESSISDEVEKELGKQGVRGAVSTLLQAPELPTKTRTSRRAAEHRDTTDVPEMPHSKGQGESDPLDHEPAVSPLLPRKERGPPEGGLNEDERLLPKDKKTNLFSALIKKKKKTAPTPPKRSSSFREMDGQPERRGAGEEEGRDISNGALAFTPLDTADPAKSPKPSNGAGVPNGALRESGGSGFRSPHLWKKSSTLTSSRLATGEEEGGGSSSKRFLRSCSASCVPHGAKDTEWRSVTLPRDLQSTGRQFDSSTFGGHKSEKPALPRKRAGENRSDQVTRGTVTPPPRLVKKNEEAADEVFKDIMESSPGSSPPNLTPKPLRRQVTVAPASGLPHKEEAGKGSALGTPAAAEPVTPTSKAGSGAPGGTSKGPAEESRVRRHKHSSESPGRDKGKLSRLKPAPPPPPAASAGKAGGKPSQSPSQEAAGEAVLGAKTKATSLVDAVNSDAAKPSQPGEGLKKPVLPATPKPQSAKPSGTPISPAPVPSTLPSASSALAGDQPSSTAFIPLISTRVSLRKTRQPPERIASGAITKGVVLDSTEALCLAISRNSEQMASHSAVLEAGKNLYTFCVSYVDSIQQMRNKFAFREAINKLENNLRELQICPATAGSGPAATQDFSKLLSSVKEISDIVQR

As for `CC(C)(CO)Nc1ccc(C(=O)Nc2cccc(S(=O)(=O)C3CCCC3)c2)c(N2CCC3(CC2)CC3)n1` [AM-0277], the remaining activity at 1 µM on CDK8 (setting [1]) came to 70%; on Abl_phos (setting [1]) it was 46%; at MAP4K4 (setting [1]), 100%; at GAK (setting [1]) it was 100%.

In the case of `CC(C)(C)NS(=O)(=O)c1cccc(NC(=O)c2ccc(S(=O)(=O)NC(C)(C)C)cc2N2CCC3(CC2)CC3)c1` [AM-1882], the remaining activity at 1 µM at CDK8 (setting [2]) was determined as 34.5%; at Abl_phos (setting [2]), 63.5%; on MAP4K4 (setting [2]), 95%; on GAK (setting [2]), 99.5%.

Consider `C[C@@H]1CN(c2cccc(NC(=O)c3ccc(NS(=O)(=O)CCO)cc3N3CCC4(CC3)CC4)n2)CCO1` [AM-5308], for which the remaining activity at 1 µM at CDK8 (setting [3]) was 87%; on Abl_phos (setting [3]), 98.5%; on MAP4K4 (setting [3]), 75%; on GAK (setting [3]), 86%.
